The CheMixHub viscosity set
Values joined by “and” are separate entries in the source; they are usually repeats but may differ in a detail not shown here. Equal values may be shown once.

Assay: xn = mol fraction of the nth substance listed

CCOCCO + CCCCCCCO
298.15 K, 101 kPa
Conditions	viscosity [mPa·s]
x1 = 0.1253	4.967
x1 = 0.2438	4.207
x1 = 0.3559	3.655
x1 = 0.4623	3.23
x1 = 0.5632	2.902
x1 = 0.6592	2.617
x1 = 0.7505	2.383
x1 = 0.8376	2.2
x1 = 0.9207	2.041

CCOCCO + CCCCCO
298.15 K, 101 kPa
Conditions	viscosity [mPa·s]
x1 = 0.098	3.167
x1 = 0.1965	2.864
x1 = 0.2954	2.619
x1 = 0.3947	2.431
x1 = 0.4945	2.283
x1 = 0.5947	2.178
x1 = 0.6953	2.099
x1 = 0.7964	2.027
x1 = 0.898	1.954

COCc1ccccc1 + CCCCCOC(C)=O
Conditions	viscosity [mPa·s]
298.15 K, 101 kPa, x2 = 0.5	0.8479

Oc1ccc(Cl)cc1 + CCCCCOC(C)=O
Conditions	viscosity [mPa·s]
298.15 K, 101 kPa, x1 = 0.5	1.27

CNC(C)=O + CCCCN
308.15 K, 101 kPa
Conditions	viscosity [mPa·s]
x1 = 0.0335	0.414
x1 = 0.1849	0.5985
x1 = 0.3822	0.9135
x1 = 0.4385	1.049
x1 = 0.5671	1.387
x1 = 0.6888	1.829
x1 = 0.7756	2.15
x1 = 0.8792	2.675
x1 = 0.9781	3.172

Oc1ccc(Cl)cc1 + CCCCN(CCCC)CCCC
298.16 K, 101 kPa
Conditions	viscosity [mPa·s]
x1 = 0.5057	14.04
x1 = 0.5498	23.8
x1 = 0.6004	46.15
x1 = 0.6534	94.2
x1 = 0.7034	222.8
x1 = 0.714	261.7
x1 = 0.7471	389.7
x1 = 0.7798	438.6
x1 = 0.8047	424.7
x1 = 0.8194	339.1
x1 = 0.8508	228.2
x1 = 0.8615	173.1
x1 = 0.88	141.3
x1 = 0.9041	99.6
x1 = 0.915	73.06
x1 = 0.9457	46.28
x1 = 0.9798	26.23
x2 = 0.002811	19.56

Oc1ccc(Cl)cc1 + CCCCNCCCC
298.16 K, 101 kPa
Conditions	viscosity [mPa·s]
x1 = 0.4053	3.541
x1 = 0.5045	11.99
x1 = 0.5585	31.68
x1 = 0.6051	56.94
x1 = 0.6526	126.7
x1 = 0.6871	181.4
x1 = 0.7235	251.1
x1 = 0.7533	273.6
x1 = 0.7813	263
x1 = 0.8104	221
x1 = 0.84	163.2
x1 = 0.8686	111.1
x1 = 0.8961	79.37
x1 = 0.9256	53.62
x1 = 0.9749	26.85

CC(C)CCO + CCCCO
298.15 K, 101 kPa
Conditions	viscosity [mPa·s]
x2 = 0.1033	3.62
x2 = 0.204	3.472
x2 = 0.2977	3.343
x2 = 0.4026	3.211
x2 = 0.5005	3.093
x2 = 0.6046	2.972
x2 = 0.6996	2.851
x2 = 0.8015	2.746
x2 = 0.9172	2.615

CCOCCO + CCCCO
viscosity [mPa·s]
Conditions	298.15 K	303.15 K	308.15 K	313.15 K
101 kPa, x1 = 0.0837	2.434	–	–	–
101 kPa, x1 = 0.1706	2.312	–	–	–
101 kPa, x1 = 0.2606	2.206	–	–	–
101 kPa, x1 = 0.3541	2.113	–	–	–
101 kPa, x1 = 0.4513	2.035	–	–	–
101 kPa, x1 = 0.5523	1.984	–	–	–
101 kPa, x1 = 0.6574	1.949	–	–	–
101 kPa, x1 = 0.7669	1.925	–	–	–
101 kPa, x1 = 0.881	1.902	–	–	–
101.33 kPa, x1 = 0.1017	2.284	1.999	1.771	1.565
101.33 kPa, x1 = 0.2007	2.13	1.887	1.671	1.49
101.33 kPa, x1 = 0.2996	2.015	1.787	1.589	1.42
101.33 kPa, x1 = 0.4028	1.958	1.731	1.546	1.378
101.33 kPa, x1 = 0.5032	1.891	1.677	1.499	1.34
101.33 kPa, x1 = 0.6036	1.86	1.656	1.48	1.331
101.33 kPa, x1 = 0.6986	1.838	1.634	1.462	1.31
101.33 kPa, x1 = 0.8029	1.829	1.63	1.458	1.314
101.33 kPa, x1 = 0.9	1.822	1.629	1.462	1.309

CNC(C)=O + CCCCO
303.15 K, 101 kPa
Conditions	viscosity [mPa·s]
x1 = 0.0988	2.32
x1 = 0.2013	2.369
x1 = 0.2993	2.428
x1 = 0.3951	2.525
x1 = 0.4945	2.651
x1 = 0.5957	2.82
x1 = 0.6947	3.015
x1 = 0.8011	3.259
x1 = 0.8918	3.503

Cc1ccc([S@@](=O)O[C@@H]2C[C@H](C)CC[C@H]2C(C)C)cc1 + CCCCO
298 K, 101.3 kPa
Conditions	viscosity [mPa·s]
x1 = 0.00223	2.53
x1 = 0.0043	2.548
x1 = 0.00647	2.573
x1 = 0.0087	2.586
x1 = 0.01163	2.628

CC(C)CCO + CCCCOC(C)=O
308 K, 101 kPa
Conditions	viscosity [mPa·s]
x2 = 0.0998	2.631
x2 = 0.2003	2.091
x2 = 0.3001	1.715
x2 = 0.3999	1.418
x2 = 0.4998	1.221
x2 = 0.5999	1.019
x2 = 0.6997	0.917
x2 = 0.8002	0.811
x2 = 0.9002	0.734

CCOCCO + CCCCOC(C)=O
298.15 K, 101 kPa
Conditions	viscosity [mPa·s]
x1 = 0.0826	0.6948
x1 = 0.1249	0.7087
x1 = 0.1454	0.7178
x1 = 0.2182	0.7512
x1 = 0.3951	0.8537
x1 = 0.4691	0.9144
x1 = 0.502	0.9435
x1 = 0.5174	0.9569
x1 = 0.5604	0.9991
x1 = 0.6488	1.101
x1 = 0.7547	1.258
x1 = 0.7674	1.276
x1 = 0.7794	1.296
x1 = 0.9079	1.564
x1 = 0.9531	1.676
x1 = 0.9678	1.72

CNCCO + CCCCOCCO
viscosity, 101.3 kPa
Conditions	293.15 K	298.15 K	303.15 K	308.15 K	313.15 K	318.15 K	323.15 K
x1 = 0.149	4.016 mPa·s	3.469 mPa·s	3.02 mPa·s	2.649 mPa·s	2.339 mPa·s	2.077 mPa·s	1.856 mPa·s
x1 = 0.403	5.748 mPa·s	4.862 mPa·s	4.158 mPa·s	3.584 mPa·s	3.112 mPa·s	2.725 mPa·s	2.401 mPa·s
x1 = 0.512	6.672 mPa·s and 6.73 mPa·s	5.591 mPa·s and 5.64 mPa·s	4.739 mPa·s and 4.78 mPa·s	4.054 mPa·s and 4.09 mPa·s	3.5 mPa·s and 3.53 mPa·s	3.045 mPa·s and 3.07 mPa·s	2.667 mPa·s and 2.69 mPa·s
x1 = 0.611	7.632 mPa·s	6.341 mPa·s	5.331 mPa·s	4.528 mPa·s	3.883 mPa·s	3.358 mPa·s	2.926 mPa·s
x1 = 0.702	8.54 mPa·s	7.04 mPa·s	5.87 mPa·s	4.95 mPa·s	4.22 mPa·s	3.63 mPa·s	3.15 mPa·s
x1 = 0.786	9.713 mPa·s	7.929 mPa·s	6.563 mPa·s	5.498 mPa·s	4.657 mPa·s	3.983 mPa·s	3.436 mPa·s
x1 = 0.934	12.07 mPa·s	9.674 mPa·s	7.893 mPa·s	6.525 mPa·s	5.461 mPa·s	4.621 mPa·s	3.948 mPa·s

CNC(C)=O + CCCCn1cc[n+](C)c1.F[B-](F)(F)F
101 kPa
Conditions	viscosity [mPa·s]
293.15 K, x2 = 0.8495	82.55
308.15 K, x2 = 0.714	24.65
